{"source": "patent US11124554B2", "about": "“Modified ligand-gated ion channels and methods of use” (Howard Hughes Medical Institute, priority 2016, dated 2021)", "key": {"α7^L131A-GlyR": {"target": "T1, α7^L131A-GlyR (Homo sapiens, UniProt P36544, L131A)", "T1 construct": "expressed in transfected cells", "T1 sequence (P36544 with tags, fused parts or gaps L131A)": "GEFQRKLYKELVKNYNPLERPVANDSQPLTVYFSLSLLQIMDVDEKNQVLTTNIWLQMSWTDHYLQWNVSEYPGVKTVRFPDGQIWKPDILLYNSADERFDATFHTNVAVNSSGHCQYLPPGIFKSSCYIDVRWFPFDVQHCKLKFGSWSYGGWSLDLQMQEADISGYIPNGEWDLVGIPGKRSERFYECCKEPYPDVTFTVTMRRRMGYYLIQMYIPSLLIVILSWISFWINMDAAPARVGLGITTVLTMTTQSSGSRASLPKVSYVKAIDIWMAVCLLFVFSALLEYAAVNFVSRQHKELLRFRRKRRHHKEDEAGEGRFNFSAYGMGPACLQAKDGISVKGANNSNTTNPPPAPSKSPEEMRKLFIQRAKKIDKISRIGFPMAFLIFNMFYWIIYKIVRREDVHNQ", "test": "Agonist potency at chimeric channel (Table 9)", "assay_type": "cell-based"}, "α7^L131V-GlyR": {"target": "T2, α7^L131V-GlyR (Homo sapiens, UniProt P36544, L131V)", "T2 construct": "expressed in transfected cells", "T2 sequence (P36544 with tags, fused parts or gaps L131V)": "as the sequence (P36544 with tags, fused parts or gaps L131A) above, with A109V counted along it", "test": "Agonist potency at chimeric channel (Table 9)", "assay_type": "cell-based"}, "α7-5HT3": {"target": "T3, α7-5HT3 (Homo sapiens, UniProt P36544, M226I/T225I)", "T3 construct": "expressed in transfected cells; host or cells: HEK cells", "T3 sequence (P36544 with tags, fused parts or gaps T225I/M226I)": "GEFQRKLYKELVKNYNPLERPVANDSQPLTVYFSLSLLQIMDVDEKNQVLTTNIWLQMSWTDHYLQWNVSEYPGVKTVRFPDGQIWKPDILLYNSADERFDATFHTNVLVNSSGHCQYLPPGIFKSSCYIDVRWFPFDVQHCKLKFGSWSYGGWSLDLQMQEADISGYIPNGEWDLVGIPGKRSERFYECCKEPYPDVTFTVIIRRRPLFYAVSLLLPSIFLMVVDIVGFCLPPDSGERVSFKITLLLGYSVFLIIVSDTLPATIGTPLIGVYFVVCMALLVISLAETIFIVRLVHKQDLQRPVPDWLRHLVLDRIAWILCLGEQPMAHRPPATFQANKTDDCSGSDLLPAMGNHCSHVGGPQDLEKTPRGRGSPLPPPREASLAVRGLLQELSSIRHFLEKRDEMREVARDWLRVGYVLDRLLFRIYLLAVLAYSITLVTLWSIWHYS", "test": "Agonist potency (EC50), HEK cells expressing chimeric channel", "assay_type": "cell-based, human α7 nAChR LBD, murine 5HT3 IPD", "settings": "read-out: Mean EC50, α7-5HT3"}, "[1]": {"target": "T4, α7^L141F,Y115F,G175K-GlyR (Homo sapiens, UniProt P36544, G175K/L141F/Y115F)", "T4 construct": "expressed in transfected cells", "T4 sequence (P36544 with tags, fused parts or gaps Y115F/L141F/G175K)": "as the sequence (P36544 with tags, fused parts or gaps L131A) above, with Y93F, A109L, L119F, G153K counted along it", "test": "Agonist potency at chimeric channel", "assay_type": "cell-based"}, "α7^Q79A-5HT3": {"target": "T5, α7^Q79A-5HT3 (Homo sapiens, UniProt P36544, M226I/Q79A/T225I)", "T5 construct": "expressed in transfected cells; host or cells: HEK cells", "T5 sequence (P36544 with tags, fused parts or gaps Q79A/T225I/M226I)": "as the sequence (P36544 with tags, fused parts or gaps T225I/M226I) above, with Q57A counted along it", "test": "Agonist potency (EC50), HEK cells expressing chimeric channel", "assay_type": "cell-based, human α7 nAChR LBD, murine 5HT3 IPD", "settings": "read-out: Mean EC50, α7^Q79A-5HT3"}, "α7^L131M-GlyR": {"target": "T6, α7^L131M-GlyR (Homo sapiens, UniProt P36544, L131M)", "T6 construct": "expressed in transfected cells", "T6 sequence (P36544 with tags, fused parts or gaps L131M)": "as the sequence (P36544 with tags, fused parts or gaps L131A) above, with A109M counted along it", "test": "Agonist potency at chimeric channel (Table 9)", "assay_type": "cell-based"}, "α7^Q79G,G175K-GlyR": {"target": "T7, α7^Q79G,G175K-GlyR (Homo sapiens, UniProt P36544, G175K/Q79G)", "T7 construct": "expressed in transfected cells", "T7 sequence (P36544 with tags, fused parts or gaps Q79G/G175K)": "as the sequence (P36544 with tags, fused parts or gaps L131A) above, with Q57G, A109L, G153K counted along it", "test": "Agonist potency at chimeric channel", "assay_type": "cell-based"}, "α7^L131F-GlyR": {"target": "T8, α7^L131F-GlyR (Homo sapiens, UniProt P36544, L131F)", "T8 construct": "expressed in transfected cells", "T8 sequence (P36544 with tags, fused parts or gaps L131F)": "as the sequence (P36544 with tags, fused parts or gaps L131A) above, with A109F counted along it", "test": "Agonist potency at chimeric channel (Table 9)", "assay_type": "cell-based"}, "α7^G175K-GlyR": {"target": "T9, α7^G175K-GlyR (Homo sapiens, UniProt P36544, G175K)", "T9 construct": "expressed in transfected cells", "T9 sequence (P36544 with tags, fused parts or gaps G175K)": "as the sequence (P36544 with tags, fused parts or gaps L131A) above, with A109L, G153K counted along it", "test": "Agonist potency at chimeric channel", "assay_type": "cell-based"}, "α7^Y115F,G175K-GlyR": {"target": "T10, α7^Y115F,G175K-GlyR (Homo sapiens, UniProt P36544, G175K/Y115F)", "T10 construct": "expressed in transfected cells", "T10 sequence (P36544 with tags, fused parts or gaps Y115F/G175K)": "as the sequence (P36544 with tags, fused parts or gaps L131A) above, with Y93F, A109L, G153K counted along it", "test": "Agonist potency at chimeric channel", "assay_type": "cell-based"}, "[2]": {"tested_on": "α7GlyR chimeric channels with G175K and A298G mutations", "assay_type": "cell-based, human", "settings": "read-out: Agonist potency"}, "α7^Q79G-GlyR": {"target": "T11, α7^Q79G-GlyR (Homo sapiens, UniProt P36544, Q79G)", "T11 construct": "expressed in transfected cells; host or cells: HEK cells", "T11 sequence (P36544 with tags, fused parts or gaps Q79G)": "as the sequence (P36544 with tags, fused parts or gaps L131A) above, with Q57G, A109L counted along it", "test": "Agonist potency (EC50), HEK cells expressing chimeric channel", "assay_type": "cell-based"}, "α7^L131G,Q139L-GlyR": {"target": "T12, α7^L131G,Q139L-GlyR (Homo sapiens, UniProt P36544, L131G/Q139L)", "T12 construct": "expressed in transfected cells", "T12 sequence (P36544 with tags, fused parts or gaps L131G/Q139L)": "as the sequence (P36544 with tags, fused parts or gaps L131A) above, with A109G, Q117L counted along it", "test": "Agonist potency at chimeric channel (Table 9)", "assay_type": "cell-based"}, "α7^W77F,G175K-GlyR": {"target": "T13, α7^W77F,G175K-GlyR (Homo sapiens, UniProt P36544, G175K/W77F)", "T13 construct": "expressed in transfected cells", "T13 sequence (P36544 with tags, fused parts or gaps W77F/G175K)": "as the sequence (P36544 with tags, fused parts or gaps L131A) above, with W55F, A109L, G153K counted along it", "test": "Agonist potency at chimeric channel", "assay_type": "cell-based"}, "[3]": {"target": "T14, α7GlyR R27D E41R Q79G Y115F (Homo sapiens, UniProt P36544, E41R/Q79G/R27D/Y115F)", "T14 construct": "expressed in transfected cells", "T14 sequence (P36544 with tags, fused parts or gaps R27D/E41R/Q79G/Y115F)": "as the sequence (P36544 with tags, fused parts or gaps L131A) above, with R5D, E19R, Q57G, Y93F, A109L counted along it", "test": "Agonist potency at chimeric channel (Table 7)", "assay_type": "cell-based"}, "α7^Q79S-5HT3": {"target": "T15, α7^Q79S-5HT3 (Homo sapiens, UniProt P36544, M226I/Q79S/T225I)", "T15 construct": "expressed in transfected cells; host or cells: HEK cells", "T15 sequence (P36544 with tags, fused parts or gaps Q79S/T225I/M226I)": "as the sequence (P36544 with tags, fused parts or gaps T225I/M226I) above, with Q57S counted along it", "test": "Agonist potency (EC50), HEK cells expressing chimeric channel", "assay_type": "cell-based, human α7 nAChR LBD, murine 5HT3 IPD", "settings": "read-out: Mean EC50, α7^Q79S-5HT3"}, "α7GlyR L131G D219A": {"target": "T16, α7GlyR L131G D219A (Homo sapiens, UniProt P36544, D219A/L131G)", "T16 construct": "expressed in transfected cells", "T16 sequence (P36544 with tags, fused parts or gaps L131G/D219A)": "as the sequence (P36544 with tags, fused parts or gaps L131A) above, with A109G, D197A counted along it", "test": "Agonist potency at chimeric channel (Table 9)", "assay_type": "cell-based"}, "[4]": {"target": "T17, α7GlyR Q79G Y115F G175K Y210F (Homo sapiens, UniProt P36544, G175K/Q79G/Y115F/Y210F)", "T17 construct": "expressed in transfected cells", "T17 sequence (P36544 with tags, fused parts or gaps Q79G/Y115F/G175K/Y210F)": "as the sequence (P36544 with tags, fused parts or gaps L131A) above, with Q57G, Y93F, A109L, G153K, Y188F counted along it", "test": "Agonist potency at chimeric channel", "assay_type": "cell-based"}, "α7^L131Q-GlyR": {"target": "T18, α7^L131Q-GlyR (Homo sapiens, UniProt P36544, L131Q)", "T18 construct": "expressed in transfected cells", "T18 sequence (P36544 with tags, fused parts or gaps L131Q)": "as the sequence (P36544 with tags, fused parts or gaps L131A) above, with A109Q counted along it", "test": "Agonist potency at chimeric channel (Table 9)", "assay_type": "cell-based"}, "α7^Q79G,Y115F,G175K-GlyR": {"target": "T19, α7^Q79G,Y115F,G175K-GlyR (Homo sapiens, UniProt P36544, G175K/Q79G/Y115F)", "T19 construct": "expressed in transfected cells", "T19 sequence (P36544 with tags, fused parts or gaps Q79G/Y115F/G175K)": "as the sequence (P36544 with tags, fused parts or gaps L131A) above, with Q57G, Y93F, A109L, G153K counted along it", "test": "Agonist potency at chimeric channel", "assay_type": "cell-based"}, "α7^G175K,Y210F-GlyR": {"target": "T20, α7^G175K,Y210F-GlyR (Homo sapiens, UniProt P36544, G175K/Y210F)", "T20 construct": "expressed in transfected cells", "T20 sequence (P36544 with tags, fused parts or gaps G175K/Y210F)": "as the sequence (P36544 with tags, fused parts or gaps L131A) above, with A109L, G153K, Y188F counted along it", "test": "Agonist potency at chimeric channel", "assay_type": "cell-based"}, "α7^L131G-GlyR": {"target": "T21, α7^L131G-GlyR (Homo sapiens, UniProt P36544, L131G)", "T21 construct": "expressed in transfected cells", "T21 sequence (P36544 with tags, fused parts or gaps L131G)": "as the sequence (P36544 with tags, fused parts or gaps L131A) above, with A109G counted along it", "test": "Agonist potency at chimeric channel (Table 9)", "assay_type": "cell-based"}, "α7^W77F,G175K,Y210F-GlyR": {"target": "T22, α7^W77F,G175K,Y210F-GlyR (Homo sapiens, UniProt P36544, G175K/W77F/Y210F)", "T22 construct": "expressed in transfected cells", "T22 sequence (P36544 with tags, fused parts or gaps W77F/G175K/Y210F)": "as the sequence (P36544 with tags, fused parts or gaps L131A) above, with W55F, A109L, G153K, Y188F counted along it", "test": "Agonist potency at chimeric channel", "assay_type": "cell-based"}, "α7^Q79S-GlyR": {"target": "T23, α7^Q79S-GlyR (Homo sapiens, UniProt P36544, Q79S)", "T23 construct": "expressed in transfected cells; host or cells: HEK cells", "T23 sequence (P36544 with tags, fused parts or gaps Q79S)": "as the sequence (P36544 with tags, fused parts or gaps L131A) above, with Q57S, A109L counted along it", "test": "Agonist potency (EC50), HEK cells expressing chimeric channel", "assay_type": "cell-based"}, "α7^W77F,Q79G,G175K-GlyR": {"target": "T24, α7^W77F,Q79G,G175K-GlyR (Homo sapiens, UniProt P36544, G175K/Q79G/W77F)", "T24 construct": "expressed in transfected cells", "T24 sequence (P36544 with tags, fused parts or gaps W77F/Q79G/G175K)": "as the sequence (P36544 with tags, fused parts or gaps L131A) above, with W55F, Q57G, A109L, G153K counted along it", "test": "Agonist potency at chimeric channel", "assay_type": "cell-based"}, "α7^L131G,Y217F-GlyR": {"target": "T25, α7^L131G,Y217F-GlyR (Homo sapiens, UniProt P36544, L131G/Y217F)", "T25 construct": "expressed in transfected cells", "T25 sequence (P36544 with tags, fused parts or gaps L131G/Y217F)": "as the sequence (P36544 with tags, fused parts or gaps L131A) above, with A109G, Y195F counted along it", "test": "Agonist potency at chimeric channel (Table 9)", "assay_type": "cell-based"}, "α7^Q79S,L131G-GlyR": {"target": "T26, α7^Q79S,L131G-GlyR (Homo sapiens, UniProt P36544, L131G/Q79S)", "T26 construct": "expressed in transfected cells", "T26 sequence (P36544 with tags, fused parts or gaps Q79S/L131G)": "as the sequence (P36544 with tags, fused parts or gaps L131A) above, with Q57S, A109G counted along it", "test": "Agonist potency at chimeric channel (Table 9)", "assay_type": "cell-based"}, "α7^Q79G,Q139L,G175K-GlyR": {"target": "T27, α7^Q79G,Q139L,G175K-GlyR (Homo sapiens, UniProt P36544, G175K/Q139L/Q79G)", "T27 construct": "expressed in transfected cells", "T27 sequence (P36544 with tags, fused parts or gaps Q79G/Q139L/G175K)": "as the sequence (P36544 with tags, fused parts or gaps L131A) above, with Q57G, A109L, Q117L, G153K counted along it", "test": "Agonist potency at chimeric channel", "assay_type": "cell-based"}, "α7^L131G-5HT3 HC": {"target": "T28, α7^L131G-5HT3 HC (Homo sapiens, UniProt P36544, L131G, form not given)", "T28 construct": "rows headed: Agonist potency; other: α75HT3 L131G HC; α75HT3 L131G HC; fused on or other part: 5-HT3A receptor ion pore domain at the C-terminus", "T28 sequence (P36544 23-224 L131G limits assumed, form open)": "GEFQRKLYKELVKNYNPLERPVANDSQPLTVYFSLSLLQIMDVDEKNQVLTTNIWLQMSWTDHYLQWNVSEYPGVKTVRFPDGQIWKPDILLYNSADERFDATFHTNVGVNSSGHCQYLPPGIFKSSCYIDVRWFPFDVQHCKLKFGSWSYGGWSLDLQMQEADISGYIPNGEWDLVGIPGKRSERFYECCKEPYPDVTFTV", "test": "Agonist potency at chimeric channel (Table 9)", "assay_type": "cell-based", "settings": "read-out: Agonist potency"}}, "note": "Like-named read-outs stand apart in the source and are kept apart here."}
{"compound": "O=c1cccc2n1C[C@@H]1CNC[C@H]2C1", "note": "[Cytisine]", "values": [{"measurement": "EC50", "setting": "α7^L131A-GlyR", "value": 20.6, "unit": "µM"}, {"measurement": "EC50", "setting": "α7^L131V-GlyR", "value": 4.3, "unit": "µM"}, {"measurement": "EC50", "setting": "α7-5HT3", "value": 8.2, "unit": "µM"}, {"measurement": "EC50", "setting": "[1]", "value": 4.74, "unit": "µM"}, {"measurement": "EC50", "setting": "α7^Q79A-5HT3", "value": 4, "unit": "µM"}, {"measurement": "EC50", "setting": "α7^L131M-GlyR", "value": 7, "unit": "µM"}, {"measurement": "EC50", "setting": "α7^Q79G,G175K-GlyR", "value": 2.5, "unit": "µM"}, {"measurement": "EC50", "setting": "α7^L131F-GlyR", "value": 10.5, "unit": "µM"}, {"measurement": "EC50", "setting": "α7^G175K-GlyR", "value": 0.4, "unit": "µM"}, {"measurement": "EC50", "setting": "α7^Y115F,G175K-GlyR", "value": 7.1, "unit": "µM"}, {"measurement": "EC50", "setting": "[2]; α7GlyR Q79G A298G G175K Y115F", "value": 4.6, "unit": "µM"}, {"measurement": "EC50", "setting": "[2]; α7GlyR Q79G A298G P2161", "value": 5.5, "unit": "µM"}, {"measurement": "EC50", "setting": "[2]; α7GlyR Q79G A298G Y115F K395 K396A", "value": "> 30", "unit": "µM"}, {"measurement": "EC50", "setting": "[2]; α7GlyR Q79G G175K A298G", "value": 0.134, "unit": "µM"}, {"measurement": "EC50", "setting": "[2]; α7GlyR Q79G W77F A298G", "value": 14.1, "unit": "µM"}, {"measurement": "EC50", "setting": "α7^Q79G-GlyR", "value": 5.6, "unit": "µM"}, {"measurement": "EC50", "setting": "α7^L131G,Q139L-GlyR", "value": 12, "unit": "µM"}, {"measurement": "EC50", "setting": "α7^W77F,G175K-GlyR", "value": 1.5, "unit": "µM"}, {"measurement": "EC50", "setting": "[3]", "value": "> 30", "unit": "µM"}, {"measurement": "EC50", "setting": "α7^Q79S-5HT3", "value": 4.4, "unit": "µM"}, {"measurement": "EC50", "setting": "α7GlyR L131G D219A", "value": "> 30", "unit": "µM"}, {"measurement": "EC50", "setting": "[4]", "value": "> 30", "unit": "µM"}, {"measurement": "EC50", "setting": "α7^L131Q-GlyR", "value": "> 30", "unit": "µM"}, {"measurement": "EC50", "setting": "α7^Q79G,Y115F,G175K-GlyR", "value": "> 10", "unit": "µM"}, {"measurement": "EC50", "setting": "α7^G175K,Y210F-GlyR", "value": "> 10", "unit": "µM"}, {"measurement": "EC50", "setting": "α7^L131G-GlyR", "value": 13.1, "unit": "µM"}, {"measurement": "EC50", "setting": "α7^W77F,G175K,Y210F-GlyR", "value": 5.1, "unit": "µM"}, {"measurement": "EC50", "setting": "α7^Q79S-GlyR", "value": 2.5, "unit": "µM"}, {"measurement": "EC50", "setting": "α7^W77F,Q79G,G175K-GlyR", "value": 6.9, "unit": "µM"}, {"measurement": "EC50", "setting": "α7^L131G,Y217F-GlyR", "value": 30, "unit": "µM"}, {"measurement": "EC50", "setting": "α7^Q79S,L131G-GlyR", "value": 8.1, "unit": "µM"}, {"measurement": "EC50", "setting": "α7^Q79G,Q139L,G175K-GlyR", "value": 3.24, "unit": "µM"}, {"measurement": "EC50", "setting": "α7^L131G-5HT3 HC", "value": 11, "unit": "µM"}]}
